Reference: paper PMC7587962, “Evaluation of Cytotoxicity and α-Glucosidase Inhibitory Activity of Amide and Polyamino-Derivatives of Lupane Triterpenoids” (Molecules, 2020)

Tests used:
[1] = test system: CCRF-CEM; assay: NCI-60 SRB screen: leukemia CCRF-CEM; assay type: cell-based; settings: Homo sapiens, 48 h
[2] = test system: K-562; assay: NCI-60 SRB screen: leukemia K-562; assay type: cell-based, human; settings: K-562
[3] = test system: MOLT-4; assay: NCI-60 SRB screen: leukemia MOLT-4; assay type: cell-based; settings: Homo sapiens, 48 h, MOLT-4
[4] = test system: RPMI-8226; assay: NCI-60 SRB screen: leukemia RPMI-8226; assay type: cell-based; settings: Homo sapiens, 48 h, RPMI-8226
[5] = test system: A549/ATCC; assay: NCI-60 SRB screen: non-small cell lung cancer A549/ATCC; assay type: cell-based, human; settings: A549/ATCC
[6] = test system: EKVX; assay: NCI-60 SRB screen: non-small cell lung cancer EKVX; assay type: cell-based, human
[7] = test system: HOP-62; assay: NCI-60 SRB screen: non-small cell lung cancer HOP-62; assay type: cell-based, human; settings: HOP-62
[8] = test system: HOP-92; assay: NCI-60 SRB screen: non-small cell lung cancer HOP-92; assay type: cell-based, human; settings: HOP-92
[9] = test system: NCI-H23; assay: NCI-60 SRB screen: non-small cell lung cancer NCI-H23; assay type: cell-based, human; settings: NCI-H23
[10] = test system: NCI-H322M; assay: NCI-60 SRB screen: non-small cell lung cancer NCI-H322M; assay type: cell-based, human
[11] = test system: NCI-H460; assay: NCI-60 SRB screen: non-small cell lung cancer NCI-H460; assay type: cell-based; settings: Homo sapiens, 48 h, NCI-H460
[12] = test system: HCC-2998; assay: NCI-60 SRB screen: colon cancer HCC-2998; assay type: cell-based, human; settings: HCC-2998
[13] = test system: HT29; assay: NCI-60 SRB screen: colon cancer HT29; assay type: cell-based; settings: Homo sapiens, HT29
[14] = test system: KM12; assay: NCI-60 SRB screen: colon cancer KM12; assay type: cell-based, human; settings: KM12
[15] = test system: SF-268; assay: NCI-60 SRB screen: CNS cancer SF-268; assay type: cell-based, human; settings: SF-268
[16] = test system: SF-295; assay: NCI-60 SRB screen: CNS cancer SF-295; assay type: cell-based, human; settings: SF-295
[17] = test system: SF-539; assay: NCI-60 SRB screen: CNS cancer SF-539; assay type: cell-based, human; settings: SF-539
[18] = test system: SNB-75; assay: NCI-60 SRB screen: CNS cancer SNB-75; assay type: cell-based, human; settings: SNB-75
[19] = test system: U251; assay: NCI-60 SRB screen: CNS cancer U251; assay type: cell-based; settings: Homo sapiens, U251
[20] = test system: MALME-3M; assay: NCI-60 SRB screen: melanoma MALME-3M; assay type: cell-based, human; settings: MALME-3M
[21] = test system: MDA-MB-435; assay: NCI-60 SRB screen: melanoma MDA-MB-435; assay type: cell-based, human; settings: MDA-MB-435
[22] = test system: SK-MEL-5; assay: NCI-60 SRB screen: melanoma SK-MEL-5; assay type: cell-based, human; settings: SK-MEL-5
[23] = test system: IGROV1; assay: NCI-60 SRB screen: ovarian cancer IGROV1; assay type: cell-based, human; settings: IGROV1
[24] = test system: OVCAR-3; assay: NCI-60 SRB screen: ovarian cancer OVCAR-3; assay type: cell-based, human; settings: OVCAR-3
[25] = test system: OVCAR-5; assay: NCI-60 SRB screen: ovarian cancer OVCAR-5; assay type: cell-based, human; settings: OVCAR-5
[26] = test system: OVCAR-8; assay: NCI-60 SRB screen: ovarian cancer OVCAR-8; assay type: cell-based, human; settings: OVCAR-8
[27] = test system: ACHN; assay: NCI-60 SRB screen: renal cancer ACHN; assay type: cell-based, human
[28] = test system: CAKI-1; assay: NCI-60 SRB screen: renal cancer CAKI-1; assay type: cell-based, human; settings: CAKI-1
[29] = test system: RXF 393; assay: NCI-60 SRB screen: renal cancer RXF 393; assay type: cell-based, human; settings: RXF 393
[30] = test system: TK-10; assay: NCI-60 SRB screen: renal cancer TK-10; assay type: cell-based, human; settings: TK-10
[31] = test system: DU-145; assay: NCI-60 SRB screen: prostate cancer DU-145; assay type: cell-based, human; settings: DU-145
[32] = test system: MDA-MB-231/ATCC; assay: NCI-60 SRB screen: breast cancer MDA-MB-231/ATCC; assay type: cell-based; settings: Homo sapiens, 48 h
[33] = test system: HS 578T; assay: NCI-60 SRB screen: breast cancer HS 578T; assay type: cell-based, human; settings: HS 578T
[34] = test system: T-47D; assay: NCI-60 SRB screen: breast cancer T-47D; assay type: cell-based, human; settings: T-47D
[35] = test system: NSCL cancer subpanel; assay: NCI-60 screen, subpanel NSCL cancer
[36] = test system: Renal Cancer subpanel; assay: NCI-60 screen, subpanel Renal Cancer
[37] = test system: Ovarian Cancer subpanel; assay: NCI-60 screen, subpanel Ovarian Cancer
[38] = single dose 10 µM, read-out: Percentage Cell Growth
[39] = five concentrations, SRB, read-out: GI50
[40] = Homo sapiens, five concentrations, 48 h, SRB, read-out: GI50

C=C(C)[C@@H]1CC[C@]2(C(=O)NCCNCCNCCN)CC[C@]3(C)[C@H](CC[C@@H]4[C@@]5(C)CCC(=O)C(C)(C)[C@@H]5CC[C@]43C)[C@@H]12 [Compound 11]
activity at 10 µM [1, 38]: -11.3% | GI50 [1, 39]: 9.65 µM | GI50 ([2]; Homo sapiens, K562, five concentrations, 48 h, SRB, read-out: GI50): 8.2 µM | Percentage Cell Growth ([2]; single dose 10 µM): −16.99% | activity at 10 µM [3, 38]: -16.3% | GI50 [3, 39]: 6.96 µM | activity at 10 µM [4, 38]: -30.7% | GI50 [4, 39]: 6.78 µM | Percentage Cell Growth ([5]; single dose 10 µM): −76.50% | GI50 [5, 40]: 7.69 µM | GI50 [6, 40]: 7.34 µM | Percentage Cell Growth ([6]; single dose 10 µM): 11.37% | Percentage Cell Growth ([7]; single dose 10 µM): 43.09% | GI50 [7, 40]: 7.91 µM | Percentage Cell Growth ([8]; single dose 10 µM): −65.19% | GI50 [8, 40]: 2.93 µM | GI50 [9, 40]: 9.14 µM | Percentage Cell Growth ([9]; single dose 10 µM): −35.23% | GI50 [10, 40]: 7.32 µM | Percentage Cell Growth ([10]; single dose 10 µM): −81.08% | activity at 10 µM [11, 38]: -90.9% | GI50 [11, 39]: 9.4 µM | Percentage Cell Growth ([12]; single dose 10 µM): −90.04% | GI50 [12, 40]: 7.16 µM | activity at 10 µM ([13]; HT-29, 48 h, single dose 10 µM, read-out: Percentage Cell Growth): -77.4% | GI50 ([13]; HT-29, five concentrations, 48 h, SRB, read-out: GI50): 7.17 µM | GI50 [14, 40]: 8.47 µM | Percentage Cell Growth ([14]; single dose 10 µM): −81.93% | GI50 [15, 40]: 7.53 µM | Percentage Cell Growth ([15]; single dose 10 µM): −38.68% | GI50 [16, 40]: 9.42 µM | Percentage Cell Growth ([16]; single dose 10 µM): −54.47% | GI50 [17, 40]: 7.53 µM | Percentage Cell Growth ([17]; single dose 10 µM): −92.71% | GI50 [18, 40]: 6.26 µM | Percentage Cell Growth ([18]; single dose 10 µM): −41.55% | activity at 10 µM ([19]; U-251, 48 h, single dose 10 µM, read-out: Percentage Cell Growth): -81.8% | GI50 ([19]; U-251, five concentrations, 48 h, SRB, read-out: GI50): 7.34 µM | GI50 [20, 40]: 7.4 µM | Percentage Cell Growth ([20]; single dose 10 µM): −72.82% | GI50 [21, 40]: 8.7 µM | Percentage Cell Growth ([21]; single dose 10 µM): −49.89% | GI50 [22, 40]: 6.98 µM | Percentage Cell Growth ([22]; single dose 10 µM): −86.18% | GI50 ([23]; Homo sapiens, IGROV-1, five concentrations, 48 h, SRB, read-out: GI50): 6.42 µM | Percentage Cell Growth ([23]; single dose 10 µM): −84.81% | GI50 [24, 40]: 7.65 µM | Percentage Cell Growth ([24]; single dose 10 µM): −72.48% | GI50 [25, 40]: 8.78 µM | Percentage Cell Growth ([25]; single dose 10 µM): −44.11% | GI50 [26, 40]: 8.41 µM | Percentage Cell Growth ([26]; single dose 10 µM): −75.03% | GI50 [27, 40]: 13.8 µM | Percentage Cell Growth ([27]; single dose 10 µM): −83.29% | Percentage Cell Growth ([28]; single dose 10 µM): −8.79% | GI50 [28, 40]: 5.87 µM | GI50 [29, 40]: 5.6 µM | Percentage Cell Growth ([29]; single dose 10 µM): −71.88% | GI50 [30, 40]: 10.1 µM | Percentage Cell Growth ([30]; single dose 10 µM): −77.68% | Percentage Cell Growth ([31]; single dose 10 µM): −56.67% | GI50 [31, 40]: 7.47 µM | activity at 10 µM ([32]; MDA-MB-231/ATCC, single dose 10 µM, read-out: Percentage Cell Growth): -92.4% | GI50 ([32]; MDA-MB-231, MDA-MB-31/ATCC, five concentrations, SRB, read-out: GI50): 8.03 µM | Percentage Cell Growth ([33]; single dose 10 µM): 47.76% | GI50 [33, 40]: 8.3 µM | GI50 ([34]; Homo sapiens, T47D, five concentrations, 48 h, SRB, read-out: GI50): 7.52 µM | Percentage Cell Growth ([34]; single dose 10 µM): −4.36% | MID b, average sensitivity of all cell line of particular subpanel [35]: 7.58 µM | Selectivity, ratio MID a: MID b [35]: 1.21 | MID b, average sensitivity of all cell line of particular subpanel [36]: 12.52 µM | Selectivity, ratio MID a: MID b [36]: 0.73 | MID b, average sensitivity of all cell line of particular subpanel [37]: 8.24 µM | Selectivity, ratio MID a: MID b [37]: 1.11
